Values joined by “and” are separate entries in the source; they are usually repeats but may differ in a detail not shown here. Equal entries are not always repeated. Where two headings read alike, the source gives them in different places.
Experiments:
p38α = p38α (Homo sapiens, UniProt Q16539); experiment: target residence time (TRT) fluorescence polarization jump-dilution assay; type: binding
Protocol: TRTs were determined using a fluorescence polarization assay kit (Transcreener ADP, BellBrook Labs)[29]. […] The formed complex was ‘jump-diluted’ 1:100 (0.5 µl in 49.5 µl) in a 96-half-area-well plate with ATF2 (82 μM), ATP (40 μM) and ADP as the kinase assay detection reagents. The plate was measured every 3 min for 4 h. Fluorescence polarization was detected using the plate reader VictorNivo (PerkinElmer). The data were analyzed using the integrated rate equation in GraphPad Prism version 7.03 software. The residence time was calculated from the reciprocal value of koff.

KAP organoids = experiment: cell viability in KAP organoids (CellTiter-Glo); type: cell-based, mouse
Protocol: (§1) For in vitro treatment studies, organoids were mechanically dissociated and digested using TrypLE supplemented with 100 µg ml^−1 DNaseI and 10.5 µM Y-27632 dihydrochloride (Invitrogen) at 37 °C. A total of 1,000–2,000 single cells were plated per well in white 96-well plates (Greiner) in culture medium containing 10% GFR Matrigel or Cultrex BME. The treatment with doxycycline (5 µg ml^−1), pharmacological inhibitors or corresponding volumes of DMSO was started 24 h after plating. Doxycycline was obtained from Sigma-Aldrich. […] Cell viability was measured by means of CellTiter-Glo 3D or CellTiter-Glo 2.0 reagent (Promega) according to the manufacturers’ instructions and the Infinite M Plex reader (Tecan, i-control version 3.9.1 software). Results were normalized to vehicle (DMSO) or to shNC. For cell-doubling assays, the cell number was quantified at the corresponding time points using Guava EasyCyte flow cytometer (Luminex, CytoSoft v5.2 software).

PDO8 = experiment: cell viability in patient-derived CRC organoids PDO8; type: cell-based, human
Protocol: as §1

PDO12 = experiment: cell viability in patient-derived CRC organoids PDO12; type: cell-based, human
Protocol: as §1

PDO15 = experiment: cell viability in patient-derived CRC organoids PDO15; type: cell-based, human
Protocol: as §1

HCT 116 = experiment: cell viability in human CRC cell line HCT 116; type: cell-based; conditions: for HCT 116 Cell viability (%): 4 d
Protocol: (§2) To generate KAP^2D cells, KAP organoids were isolated from Matrigel, fragmented by mechanical dissociation and plated without any extracellular matrix on common cell culture dishes. Phoenix-Eco packaging cells (CRL-3214), HCT-15 (CCL-225), HCT 116 (CCL-247), COLO 205 (CCL-222), LS 174T (CL-188), RKO (CRL-2577) and HT-29 (HTB-38) were obtained from the American Type Culture Collection. The cells were cultured at 37 °C and 7% CO2 with RPMI (KAP^2D cells) or DMEM (other cell lines), supplemented with 10% FBS and penicillin–streptomycin. KAP^2D cells were authenticated using PCR (Kras locus and Trp53 locus). Phoenix-Eco packaging cells and HCT-15, HCT 116, COLO 205, LS 174T, RKO and HT-29 cells were authenticated by the provider using short tandem repeat profiling. No commonly misidentified cell lines were used. Mycoplasma contamination was excluded by a PCR-based analysis.
as §1

RKO = experiment: cell viability in human CRC cell line RKO; type: cell-based; conditions: 0.0137 µM, ED Fig. 9g, replicates
Protocol: as §2, §1

Chain of p38α (Q16539 whole entry): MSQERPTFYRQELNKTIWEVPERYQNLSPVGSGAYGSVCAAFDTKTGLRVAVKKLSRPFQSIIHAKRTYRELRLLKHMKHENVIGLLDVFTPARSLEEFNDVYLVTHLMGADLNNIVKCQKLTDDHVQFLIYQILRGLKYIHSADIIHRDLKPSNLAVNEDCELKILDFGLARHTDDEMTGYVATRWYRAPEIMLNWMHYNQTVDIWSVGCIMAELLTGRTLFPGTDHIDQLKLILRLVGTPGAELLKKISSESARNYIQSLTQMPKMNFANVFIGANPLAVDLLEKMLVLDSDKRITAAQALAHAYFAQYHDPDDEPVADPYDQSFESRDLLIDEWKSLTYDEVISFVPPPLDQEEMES

With `O=C1c2ccc(Nc3ccc(F)cc3F)cc2CCc2ccc(OC[C@H](O)CO)cc21` [SKL, skepinone-L, reference compound] the “TRT” value (p38α; Fig. 2e, replicates) was 88.3 s and 94.8 s and 81.2 s, the TRT (p38α; reciprocal of koff) was 88 s and the “Cell viability (%)” value (KAP organoids; Fig. 1g, 0.5 µM, replicates) was 97.57% and 86.81% and 127.06%. For the same compound, the “Cell viability (%)” value (KAP organoids; Fig. 1g, 1 µM, replicates) was 93.70% and 102.05% and 122.58%, the “Cell viability (%)” value (KAP organoids; Fig. 2b, compound screen, replicates) was 78.66% and 92.01% and 89.54% and the “Cell viability (%)” value (KAP organoids; Fig. 1d, 0.5 µM, replicates) was 86.70% and 72.97%. For the same compound, the “Cell viability (%)” value (KAP organoids; Fig. 1d, 1 µM, replicates) was 91.26% and 93.11%, the “Cell viability (%)” value (KAP organoids; Fig. 1d, 5 µM, replicates) was 88.80% and 85.26% and the “Cell viability (%)” value (KAP organoids; Fig. 1d, 10 µM, replicates) was 80.68% and 88.78% and 66.49%. For the same compound, the viability at 0.5 µM (KAP organoids; Mus musculus, 24 h, read-out: Cell viability (%), Fig. 1d, 0.5 µM, replicates) was 90.7%, the viability at 1 µM (KAP organoids; Mus musculus, 24 h, read-out: Cell viability (%), Fig. 1d, 1 µM, replicates) was 87.6% and the viability at 5 µM (KAP organoids; Mus musculus, 24 h, read-out: Cell viability (%), Fig. 1d, 5 µM, replicates) was 86.5%. For the same compound, the viability at 1 µM (KAP organoids; Mus musculus, read-out: Cell viability (% of DMSO), drug screen in KAP organoids, 1 µM concentration, n = 3, mean) was 86.7%, the “induction of cell death in KAP organoids (in words)” value (KAP organoids; viability assay) was “only a very weak induction of cell death” and the “Cell viability (%)” value (PDO8; PDO8, 0.5 µM, 4 d, 0.5 µM) was 95.66% and 98.53% and 69.31%. The “Cell viability (%)” value (PDO8; PDO8, 1 µM, 4 days, 1 µM) was 101.75% and 85.55% and 77.65%, the viability at 0.5 µM (PDO12; Homo sapiens, 96 h, read-out: Cell viability (%), PDO12, 0.5 µM, 4 d) was 102% and the “Cell viability (%)” value (PDO12; PDO12, 0.5 µM, 4 d, 0.5 µM) was 113.70% and 97.26%. The “Cell viability (%)” value (PDO12; PDO12, 1 µM, 4 days, 1 µM) was 108.38% and 136.33% and 112.98%, the viability at 0.5 µM (PDO15; Homo sapiens, 96 h, read-out: Cell viability (%), PDO15, 0.5 µM, 4 d) was 98% and the viability at 1 µM (PDO15; Homo sapiens, 96 h, read-out: Cell viability (%), PDO15, 1 µM, 4 days) was 106%. For the same compound, the “Cell viability (%)” value (PDO15; PDO15, 0.5 µM, 4 d, 0.5 µM) was 99.16% and 105.27%, the “Cell viability (%)” value (PDO15; PDO15, 1 µM, 4 days, 1 µM) was 107.85% and 101.84% and the “HCT 116 Cell viability (%)” value (HCT 116; 0.0137 µM) was 82.53% and 93.66% and 88.98% and 84.63%. The “HCT 116 Cell viability (%)” value (HCT 116; 0.0412 µM) was 87.30% and 84.90% and 78.78% and 77.22% and 83.29%, the “HCT 116 Cell viability (%)” value (HCT 116; 0.1235 µM) was 92.74% and 88.80% and 81.62% and 82.67% and 87.37% and the “HCT 116 Cell viability (%)” value (HCT 116; 0.3704 µM) was 94.27% and 95.66% and 82.63% and 82.17%. For the same compound, the “HCT 116 Cell viability (%)” value (HCT 116; 1.1111 µM) was 100.75% and 99.43% and 96.05% and 80.80% and 79.61% and 91.28%, the “HCT 116 Cell viability (%)” value (HCT 116; 3.3333 µM) was 95.32% and 96.31% and 81.21% and 79.37% and 87.78% and the “HCT 116 Cell viability (%)” value (HCT 116; 10.0000 µM) was 90.67% and 87.54% and 88.22% and 75.98% and 77.27% and 105.12%. The viability at 0.0137 µM (HCT 116; Homo sapiens, HCT-116, 96 h, read-out: HCT 116 Cell viability (%), 0.0137 µM, 4 d) was 85.5%, the viability at 0.0412 µM (HCT 116; Homo sapiens, HCT-116, 96 h, read-out: HCT 116 Cell viability (%), 0.0412 µM, 4 d) was 90.7% and the viability at 0.1235 µM (HCT 116; Homo sapiens, HCT-116, 96 h, read-out: HCT 116 Cell viability (%), 0.1235 µM, 4 d) was 93.8%. The viability at 0.3704 µM (HCT 116; Homo sapiens, HCT-116, 96 h, read-out: HCT 116 Cell viability (%), 0.3704 µM, 4 d) was 94.8%, the viability at 3.3333 µM (HCT 116; Homo sapiens, HCT-116, 96 h, read-out: HCT 116 Cell viability (%), 3.3333 µM, 4 d) was 96.3% and the “RKO Cell viability (%)” value (RKO; Repetition) was 119.75% and 114.04%. For the same compound, the “RKO Cell viability (%)” value (RKO; first experiment) was 97.01% and 95.97%.

— article PMC11864979, “First-in-class ultralong-target-residence-time p38α inhibitors as a mitosis-targeted therapy for colorectal cancer” (Nature Cancer, 2025)
